# Data published in patent US20250376461A1, “INDAZOLE DERIVATIVES FOR TREATING TRPM3-MEDIATED DISORDERS” (Katholieke Universiteit Leuven, priority 2022, published 2025).
# Target: T1, mouse TRPM3α2 (mTRPM3) ion channel (Mus musculus, UniProt J9SQF3)
# T1 construct: expressed in transfected cells; host or cells: flip-in HEK293
# Test: TRPM3 ion channel driven Ca2+ uptake, Fluo-4 AM assay, mTRPM3alpha2 overexpressing flip-in HEK293 cells stimulated with pregnenolone sulfate (50 μM)
# Assay type: cell-based
# Conditions: mTRPM3 overexpressing HEK293 cells stimulated with pregnenolone sulfate (50 μM), activity ranges A, B, C
# Summary of the method: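 Ca2+ influx via mouse TRPM3α2 was opened with pregnenolone sulfate (50 μM) and tracked by Fluo-4 AM fluorescence at 485/535 nm, read directly after adding about 2000 stably transfected HEK293 cells per well to compound. IC50 values come from percent inhibition scaled to vehicle and positive-control inhibitor signals.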
# T1 sequence (J9SQF3 1-1709 isoform J9SQF3-12): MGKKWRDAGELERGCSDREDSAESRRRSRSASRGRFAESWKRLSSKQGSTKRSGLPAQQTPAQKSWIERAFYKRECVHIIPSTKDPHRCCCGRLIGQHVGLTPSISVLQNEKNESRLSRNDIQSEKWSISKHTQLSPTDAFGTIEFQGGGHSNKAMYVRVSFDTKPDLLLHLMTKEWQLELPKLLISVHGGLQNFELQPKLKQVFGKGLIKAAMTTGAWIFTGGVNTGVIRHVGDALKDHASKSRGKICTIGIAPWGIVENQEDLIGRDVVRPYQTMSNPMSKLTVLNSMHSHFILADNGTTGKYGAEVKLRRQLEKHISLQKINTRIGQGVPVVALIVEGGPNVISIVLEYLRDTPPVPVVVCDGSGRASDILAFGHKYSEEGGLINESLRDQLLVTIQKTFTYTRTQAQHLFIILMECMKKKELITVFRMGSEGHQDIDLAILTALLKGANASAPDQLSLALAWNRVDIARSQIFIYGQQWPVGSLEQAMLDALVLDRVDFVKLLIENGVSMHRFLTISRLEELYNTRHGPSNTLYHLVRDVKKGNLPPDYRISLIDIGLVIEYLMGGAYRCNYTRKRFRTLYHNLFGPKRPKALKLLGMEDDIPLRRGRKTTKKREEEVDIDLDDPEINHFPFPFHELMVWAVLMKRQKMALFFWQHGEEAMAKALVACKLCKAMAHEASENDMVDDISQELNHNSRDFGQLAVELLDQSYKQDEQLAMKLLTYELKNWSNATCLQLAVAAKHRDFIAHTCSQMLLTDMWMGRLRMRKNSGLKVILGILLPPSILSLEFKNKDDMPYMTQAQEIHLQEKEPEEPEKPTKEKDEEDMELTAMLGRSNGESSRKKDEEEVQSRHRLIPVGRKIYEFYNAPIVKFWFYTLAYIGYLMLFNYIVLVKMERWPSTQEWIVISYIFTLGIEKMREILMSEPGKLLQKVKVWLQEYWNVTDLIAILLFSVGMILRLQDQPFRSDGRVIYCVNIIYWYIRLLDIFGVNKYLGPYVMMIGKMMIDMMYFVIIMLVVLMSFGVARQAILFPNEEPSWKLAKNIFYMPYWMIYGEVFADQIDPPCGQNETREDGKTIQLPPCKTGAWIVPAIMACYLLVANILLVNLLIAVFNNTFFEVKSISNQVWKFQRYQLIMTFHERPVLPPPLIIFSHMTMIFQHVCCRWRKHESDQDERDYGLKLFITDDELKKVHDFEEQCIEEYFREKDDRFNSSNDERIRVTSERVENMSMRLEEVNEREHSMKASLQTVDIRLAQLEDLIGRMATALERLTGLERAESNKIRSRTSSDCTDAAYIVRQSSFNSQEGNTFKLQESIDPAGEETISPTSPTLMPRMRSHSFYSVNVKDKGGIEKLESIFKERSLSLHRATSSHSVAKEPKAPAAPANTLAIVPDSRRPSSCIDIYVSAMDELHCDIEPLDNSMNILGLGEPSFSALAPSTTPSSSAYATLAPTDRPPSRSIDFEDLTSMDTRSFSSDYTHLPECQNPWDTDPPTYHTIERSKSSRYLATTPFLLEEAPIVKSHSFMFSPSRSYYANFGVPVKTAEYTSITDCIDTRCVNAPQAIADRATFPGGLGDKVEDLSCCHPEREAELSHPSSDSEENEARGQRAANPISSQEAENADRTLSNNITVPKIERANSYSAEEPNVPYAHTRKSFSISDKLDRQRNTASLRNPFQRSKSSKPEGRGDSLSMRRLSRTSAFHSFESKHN
row,SMILES,IC50 [µM]
1,"Cn1nc2ccc(OCc3ccccn3)cc2c1C(=O)NC(CO)C(C(F)(F)F)C(F)(F)F (single isomer, unassigned) [Cpd 227 - En1]",< 1
2,"Cn1nc2ccc(OCc3ccccn3)cc2c1C(=O)NC(CO)C(C(F)(F)F)C(F)(F)F (single isomer, unassigned) [Cpd 227 - En2]",> 20
3,"Cn1nc2ccc(OCc3ccccn3)cc2c1C(=O)NC(CO)CC(F)F (single isomer, unassigned) [Cpd 228 - En1]",< 1
4,"Cn1nc2ccc(OCc3ccccn3)cc2c1C(=O)NC(CO)CC(F)F (single isomer, unassigned) [Cpd 228 - En2]",> 20
5,"CN(C)CC(C)(CC(F)F)NC(=O)c1c2cc(OCc3ccccn3)ccc2nn1C (single isomer, unassigned) [Cpd 229 - En1, N-[1-(dimethylamino)-4,4-difluoro-2-methylbutan-2-yl]-2-methyl-5-[(pyridin-2-yl)methoxy]-2H-indazole-3-carboxamide]",1 to 20
6,"CN(C)CC(C)(CC(F)F)NC(=O)c1c2cc(OCc3ccccn3)ccc2nn1C (single isomer, unassigned) [Cpd 229 - En2, N-[1-(dimethylamino)-4,4-difluoro-2-methylbutan-2-yl]-2-methyl-5-[(pyridin-2-yl)methoxy]-2H-indazole-3-carboxamide]",> 20
7,"COCC(C)(CC(F)F)NC(=O)c1c2cc(OCc3ccccn3)ccc2nn1C (single isomer, unassigned) [Cpd 230 - En1]",> 20
8,"COCC(C)(CC(F)F)NC(=O)c1c2cc(OCc3ccccn3)ccc2nn1C (single isomer, unassigned) [Cpd 230 - En2]",1 to 20
9,"CC(=O)C(C)(CO)NC(=O)c1c2cc(OCc3ccccn3)ccc2nn1C (single isomer, unassigned) [Cpd 232 - En1]",1 to 20
10,"CC(=O)C(C)(CO)NC(=O)c1c2cc(OCc3ccccn3)ccc2nn1C (single isomer, unassigned) [Cpd 232 - En2]",< 1
11,"Cn1nc2ccc(OCc3ccccn3)cc2c1C(=O)NC1(CO)CC1(F)F (single isomer, unassigned) [Cpd 235 - En1, N-[2,2-difluoro-1-(hydroxymethyl)cyclopropyl]-2-methyl-5-[(pyridin-2-yl)methoxy]-2H-indazole-3-carboxamide]",> 20
12,"Cn1nc2ccc(OCc3ccccn3)cc2c1C(=O)NC1(CO)CC1(F)F (single isomer, unassigned) [Cpd 235 - En2, N-[2,2-difluoro-1-(hydroxymethyl)cyclopropyl]-2-methyl-5-[(pyridin-2-yl)methoxy]-2H-indazole-3-carboxamide]",1 to 20
13,"Cn1nc2ccc(OCc3ccccn3)cc2c1C(=O)NC1(CO)CC1C(F)F (single isomer, unassigned) [Cpd 237 - En1]",1 to 20
14,"Cn1nc2ccc(OCc3ccccn3)cc2c1C(=O)NC1(CO)CC1C(F)F (single isomer, unassigned) [Cpd 237 - En2]",> 20
15,"Cn1nc2ccc(OCc3ccccn3)cc2c1C(=O)NC(CO)c1nccn1C1CC1 (single isomer, unassigned) [Cpd 238 - En1]",1 to 20
16,"Cn1nc2ccc(OCc3ccccn3)cc2c1C(=O)NC(CO)c1nccn1C1CC1 (single isomer, unassigned) [Cpd 238 - En2]",1 to 20
17,"Cn1ccc(C(C)(CO)NC(=O)c2c3cc(OCc4ccccn4)ccc3nn2C)n1 (single isomer, unassigned) [Cpd 239 - En1]",> 20
18,"Cn1ccc(C(C)(CO)NC(=O)c2c3cc(OCc4ccccn4)ccc3nn2C)n1 (single isomer, unassigned) [Cpd 239 - En2]",> 20
19,"Cn1nc2ccc(OCc3ccccn3)cc2c1C(=O)NC(CO)CC(N)=O (single isomer, unassigned) [Cpd 240 - En1, 4-hydroxy-3-({2-methyl-5-[(pyridin-2-yl)methoxy]-2H-indazol-3-yl}formamido)butanamide]",> 20
20,"Cn1nc2ccc(OCc3ccccn3)cc2c1C(=O)NC(CO)CC(N)=O (single isomer, unassigned) [Cpd 240 - En2, 4-hydroxy-3-({2-methyl-5-[(pyridin-2-yl)methoxy]-2H-indazol-3-yl}formamido)butanamide]",> 20

row,SMILES,IC50 [µM]
1,"Cn1nc2ccc(OCc3ccccn3)cc2c1C(=O)NC(CO)C1CCOCC1 (single isomer, unassigned) [Cpd 241 - En1]",1 to 20
2,"Cn1nc2ccc(OCc3ccccn3)cc2c1C(=O)NC(CO)C1CCOCC1 (single isomer, unassigned) [Cpd 241 - En2]",> 20
3,"Cn1nc2ccc(OCc3ccccn3)cc2c1C(=O)NC(CO)Cc1ncccn1 (single isomer, unassigned) [Cpd 243 - En1]",> 20
4,"Cn1nc2ccc(OCc3ccccn3)cc2c1C(=O)NC(CO)Cc1ncccn1 (single isomer, unassigned) [Cpd 243 - En2]",> 20
5,"Cn1nc2ccc(OCc3ccccn3)cc2c1C(=O)NCC(O)CC(F)(F)F (single isomer, unassigned) [Cpd 245 - En1]",> 20
6,"Cn1nc2ccc(OCc3ccccn3)cc2c1C(=O)NCC(O)CC(F)(F)F (single isomer, unassigned) [Cpd 245 - En2]",> 20
7,"Cn1nc2ccc(OCc3ccccn3)cc2c1C(=O)NC1CNCC1C(F)(F)F (single isomer, unassigned) [Cpd 246 - En1]",> 20
8,"Cn1nc2ccc(OCc3ccccn3)cc2c1C(=O)NC1CNCC1C(F)(F)F (single isomer, unassigned) [Cpd 246 - En2]",< 1
9,"Cn1nc2ccc(OCc3ccccn3)cc2c1C(=O)NC1(CC(F)F)CCCNC1 (single isomer, unassigned) [Cpd 248 - En1]",> 20
10,"Cn1nc2ccc(OCc3ccccn3)cc2c1C(=O)NC1(CC(F)F)CCCNC1 (single isomer, unassigned) [Cpd 248 - En2]",1 to 20
11,"Cn1ccc(C(CO)NC(=O)c2c3cc(OCc4ccccn4)ccc3nn2C)n1 (single isomer, unassigned) [Cpd 251 - En1]",> 20
12,"Cn1ccc(C(CO)NC(=O)c2c3cc(OCc4ccccn4)ccc3nn2C)n1 (single isomer, unassigned) [Cpd 251 - En2]",> 20
13,"Cn1nc2ccc(OCc3ccccn3)cc2c1C(=O)NC(CO)Cc1ccccn1 (single isomer, unassigned) [Cpd 252 - En1]",> 20
14,"Cn1nc2ccc(OCc3ccccn3)cc2c1C(=O)NC(CO)Cc1ccccn1 (single isomer, unassigned) [Cpd 252 - En2]",> 20
15,"Cn1nc2ccc(OCc3ccccn3)cc2c1C(=O)NC1(CO)CCNC1=O (single isomer, unassigned) [Cpd 253 - En1]",< 1
16,"Cn1nc2ccc(OCc3ccccn3)cc2c1C(=O)NC1(CO)CCNC1=O (single isomer, unassigned) [Cpd 253 - En2]",1 to 20
17,"Cn1nc2ccc(OCc3ccccn3)cc2c1C(=O)NC(CO)C(F)(F)F (single isomer, unassigned) [Cpd 254 - En1]",1 to 20
18,"Cn1nc2ccc(OCc3ccccn3)cc2c1C(=O)NC(CO)C(F)(F)F (single isomer, unassigned) [Cpd 254 - En2]",> 20
19,"Cn1nc2ccc(OCc3ccccn3)cc2c1C(=O)NC(C)(CO)CC(F)(F)F (single isomer, unassigned) [Cpd 255 - En1, 2-methyl-5-[(pyridin-2-yl)methoxy]-N-(4,4,4-trifluoro-1-hydroxy-2-methylbutan-2-yl)-2H-indazole-3-carboxamide]",1 to 20
